Experimental data published in ChEMBL document CHEMBL1151464 (2008).
Values after ≈ are worked out from the molar mass of the structure shown.

Key:
Assay type in all cases: functional
Pseudomonas aeruginosa [1] = test: Antibacterial activity against Pseudomonas aeruginosa isolate 326 after 24 hrs by CLSI microdilution method
Acinetobacter baumannii [2] = test: Antibacterial activity against Acinetobacter baumannii isolate 918 after 24 hrs by CLSI microdilution method
Acinetobacter baumannii [3] = test: Antibacterial activity against Acinetobacter baumannii isolate 891 after 24 hrs by CLSI microdilution method; conditions: isolate 891, 24 h
Pseudomonas aeruginosa [4] = test: Antibacterial activity against Pseudomonas aeruginosa isolate 320 after 24 hrs by CLSI microdilution method
Acinetobacter baumannii [5] = test: Antibacterial activity against Acinetobacter baumannii isolate 930 after 24 hrs by CLSI microdilution method
Acinetobacter baumannii [6] = test: Antibacterial activity against Acinetobacter baumannii isolate 896 after 24 hrs by CLSI microdilution method
Pseudomonas aeruginosa [7] = test: Antibacterial activity against Pseudomonas aeruginosa isolate 360 after 24 hrs by CLSI microdilution method
Acinetobacter baumannii [8] = test: Antibacterial activity against Acinetobacter baumannii isolate 928 after 24 hrs by CLSI microdilution method
Acinetobacter baumannii [9] = test: Antibacterial activity against Acinetobacter baumannii isolate 912 after 24 hrs by CLSI microdilution method
Pseudomonas aeruginosa [10] = test: Antibacterial activity against Pseudomonas aeruginosa isolate 324 after 24 hrs by CLSI microdilution method
Pseudomonas aeruginosa [11] = test: Antibacterial activity against Pseudomonas aeruginosa isolate 350 after 24 hrs by CLSI microdilution method
Acinetobacter baumannii [12] = test: Antibacterial activity against Acinetobacter baumannii isolate 913 after 24 hrs by CLSI microdilution method
Acinetobacter baumannii [13] = test: Antibacterial activity against Acinetobacter baumannii isolate 910 after 24 hrs by CLSI microdilution method
Pseudomonas aeruginosa [14] = test: Antibacterial activity against Pseudomonas aeruginosa isolate 329 after 24 hrs by CLSI microdilution method
Acinetobacter baumannii [15] = test: Antibacterial activity against Acinetobacter baumannii isolate 909 after 24 hrs by CLSI microdilution method
Pseudomonas aeruginosa [16] = test: Antibacterial activity against Pseudomonas aeruginosa isolate 330 after 24 hrs by CLSI microdilution method
Acinetobacter baumannii [17] = test: Antibacterial activity against Acinetobacter baumannii isolate 894 after 24 hrs by CLSI microdilution method
Pseudomonas aeruginosa [18] = test: Antibacterial activity against Pseudomonas aeruginosa isolate 358 after 24 hrs by CLSI microdilution method
Pseudomonas aeruginosa [19] = test: Antibacterial activity against Pseudomonas aeruginosa isolate 323 after 24 hrs by CLSI microdilution method
Acinetobacter baumannii [20] = test: Antibacterial activity against Acinetobacter baumannii isolate 904 after 24 hrs by CLSI microdilution method
Pseudomonas aeruginosa [21] = test: Antibacterial activity against Pseudomonas aeruginosa isolate 367 after 24 hrs by CLSI microdilution method
Acinetobacter baumannii [22] = test: Antibacterial activity against Acinetobacter baumannii isolate 892 after 24 hrs by CLSI microdilution method
Acinetobacter baumannii [23] = test: Antibacterial activity against Acinetobacter baumannii isolate 921 after 24 hrs by CLSI microdilution method
Acinetobacter baumannii [24] = test: Antibacterial activity against Acinetobacter baumannii isolate 895 after 24 hrs by CLSI microdilution method
Pseudomonas aeruginosa [25] = test: Antibacterial activity against Pseudomonas aeruginosa isolate 327 after 24 hrs by CLSI microdilution method
Acinetobacter baumannii [26] = test: Antibacterial activity against Acinetobacter baumannii isolate 927 after 24 hrs by CLSI microdilution method
Pseudomonas aeruginosa [27] = test: Antibacterial activity against Pseudomonas aeruginosa isolate 328 after 24 hrs by CLSI microdilution method
Acinetobacter baumannii [28] = test: Antibacterial activity against Acinetobacter baumannii isolate 926 after 24 hrs by CLSI microdilution method
Acinetobacter baumannii [29] = test: Antibacterial activity against Acinetobacter baumannii isolate 932 expressing OXA-24 and OXA-51 beta-lactamase after 24 hrs by CLSI microdilution method
Acinetobacter baumannii [30] = test: Antibacterial activity against Acinetobacter baumannii isolate 929 after 24 hrs by CLSI microdilution method
Pseudomonas aeruginosa [31] = test: Antibacterial activity against Pseudomonas aeruginosa isolate 376 after 24 hrs by CLSI microdilution method
Pseudomonas aeruginosa [32] = test: Antibacterial activity against Pseudomonas aeruginosa isolate 362 after 24 hrs by CLSI microdilution method
Acinetobacter baumannii [33] = test: Antibacterial activity against Acinetobacter baumannii isolate 899 after 24 hrs by CLSI microdilution method
Pseudomonas aeruginosa [34] = test: Antibacterial activity against Pseudomonas aeruginosa isolate 356 after 24 hrs by CLSI microdilution method
Acinetobacter baumannii [35] = test: Antibacterial activity against Acinetobacter baumannii isolate 915 after 24 hrs by CLSI microdilution method
Pseudomonas aeruginosa [36] = test: Antibacterial activity against Pseudomonas aeruginosa isolate 359 after 24 hrs by CLSI microdilution method
Acinetobacter baumannii [37] = test: Antibacterial activity against Acinetobacter baumannii isolate 907 after 24 hrs by CLSI microdilution method
Pseudomonas aeruginosa [38] = test: Antibacterial activity against Pseudomonas aeruginosa isolate 369 after 24 hrs by CLSI microdilution method
Acinetobacter baumannii [39] = test: Antibacterial activity against Acinetobacter baumannii isolate 885 after 24 hrs by CLSI microdilution method
Acinetobacter baumannii [40] = test: Antibacterial activity against Acinetobacter baumannii isolate 890 after 24 hrs by CLSI microdilution method
Acinetobacter baumannii [41] = test: Antibacterial activity against Acinetobacter baumannii isolate 925 after 24 hrs by CLSI microdilution method
Acinetobacter baumannii [42] = test: Antibacterial activity against Acinetobacter baumannii isolate 905 after 24 hrs by CLSI microdilution method
Acinetobacter baumannii [43] = test: Antibacterial activity against Acinetobacter baumannii isolate 919 after 24 hrs by CLSI microdilution method
Acinetobacter baumannii [44] = test: Antibacterial activity against Acinetobacter baumannii isolate 893 after 24 hrs by CLSI microdilution method

Compound: C[C@@H](O)[C@H]1C(=O)N2C(C(=O)O)=C(S[C@@H]3CN[C@H](C(=O)N(C)C)C3)[C@H](C)[C@H]12 [MEROPENEM]
- MIC (Pseudomonas aeruginosa [1]; isolate 326, 24 h): 16 µg/mL (≈ 41.7 µM)
- MIC (Acinetobacter baumannii [2]; isolate 918, 24 h): 0.25 µg/mL (≈ 0.652 µM)
- MIC (Acinetobacter baumannii [3]): 4 µg/mL (≈ 10.4 µM)
- MIC (Pseudomonas aeruginosa [4]; isolate 320, 24 h): 2 µg/mL (≈ 5.22 µM)
- MIC (Acinetobacter baumannii [5]; isolate 930, 24 h): 0.25 µg/mL (≈ 0.652 µM)
- MIC (Acinetobacter baumannii [6]; isolate 896, 24 h): 2 µg/mL (≈ 5.22 µM)
- MIC (Pseudomonas aeruginosa [7]; isolate 360, 24 h): 0.25 µg/mL (≈ 0.652 µM)
- MIC (Acinetobacter baumannii [8]; isolate 928, 24 h): 2 µg/mL (≈ 5.22 µM)
- MIC (Acinetobacter baumannii [9]; isolate 912, 24 h): 4 µg/mL (≈ 10.4 µM)
- MIC (Pseudomonas aeruginosa [10]; isolate 324, 24 h): 0.25 µg/mL (≈ 0.652 µM)
- MIC (Pseudomonas aeruginosa [11]; isolate 350, 24 h): 2 µg/mL (≈ 5.22 µM)
- MIC (Acinetobacter baumannii [12]; isolate 913, 24 h): 0.25 µg/mL (≈ 0.652 µM)
- MIC (Acinetobacter baumannii [13]; isolate 910, 24 h): 4 µg/mL (≈ 10.4 µM)
- MIC (Pseudomonas aeruginosa [14]; isolate 329, 24 h): 0.5 µg/mL (≈ 1.3 µM)
- MIC (Acinetobacter baumannii [15]; isolate 909, 24 h): 1 µg/mL (≈ 2.61 µM)
- MIC (Pseudomonas aeruginosa [16]; isolate 330, 24 h): 0.5 µg/mL (≈ 1.3 µM)
- MIC (Acinetobacter baumannii [17]; isolate 894, 24 h): 2 µg/mL (≈ 5.22 µM)
- MIC (Pseudomonas aeruginosa [18]; isolate 358, 24 h): 16 µg/mL (≈ 41.7 µM)
- MIC (Pseudomonas aeruginosa [19]; isolate 323, 24 h): 1 µg/mL (≈ 2.61 µM)
- MIC (Acinetobacter baumannii [20]; isolate 904, 24 h): 2 µg/mL (≈ 5.22 µM)
- MIC (Pseudomonas aeruginosa [21]; isolate 367, 24 h): 0.25 µg/mL (≈ 0.652 µM)
- MIC (Acinetobacter baumannii [22]; isolate 892, 24 h): 32 µg/mL (≈ 83.4 µM)
- MIC (Acinetobacter baumannii [23]; isolate 921, 24 h): 1 µg/mL (≈ 2.61 µM)
- MIC (Acinetobacter baumannii [24]; isolate 895, 24 h): 8 µg/mL (≈ 20.9 µM)
- MIC (Pseudomonas aeruginosa [25]; isolate 327, 24 h): 2 µg/mL (≈ 5.22 µM)
- MIC (Acinetobacter baumannii [26]; isolate 927, 24 h): 0.12 µg/mL (≈ 0.313 µM)
- MIC (Pseudomonas aeruginosa [27]; isolate 328, 24 h): 2 µg/mL (≈ 5.22 µM)
- MIC (Acinetobacter baumannii [28]; isolate 926, 24 h): 32 µg/mL (≈ 83.4 µM)
- MIC (Acinetobacter baumannii [29]; isolate 932, 24 h): 256 µg/mL (≈ 668 µM)
- MIC (Acinetobacter baumannii [30]; isolate 929, 24 h): 0.5 µg/mL (≈ 1.3 µM)
- MIC (Pseudomonas aeruginosa [31]; isolate 376, 24 h): 16 µg/mL (≈ 41.7 µM)
- MIC (Pseudomonas aeruginosa [32]; isolate 362, 24 h): 0.5 µg/mL (≈ 1.3 µM)
- MIC (Acinetobacter baumannii [33]; isolate 899, 24 h): 32 µg/mL (≈ 83.4 µM)
- MIC (Pseudomonas aeruginosa [34]; isolate 356, 24 h): 2 µg/mL (≈ 5.22 µM)
- MIC (Acinetobacter baumannii [35]; isolate 915, 24 h): 0.5 µg/mL (≈ 1.3 µM)
- MIC (Pseudomonas aeruginosa [36]; isolate 359, 24 h): 0.12 µg/mL (≈ 0.313 µM)
- MIC (Acinetobacter baumannii [37]; isolate 907, 24 h): 0.5 µg/mL (≈ 1.3 µM)
- MIC (Pseudomonas aeruginosa [38]; isolate 369, 24 h): 2 µg/mL (≈ 5.22 µM)
- MIC (Acinetobacter baumannii [39]; isolate 885, 24 h): 8 µg/mL (≈ 20.9 µM)
- MIC (Acinetobacter baumannii [40]; isolate 890, 24 h): 1 µg/mL (≈ 2.61 µM)
- MIC (Acinetobacter baumannii [41]; isolate 925, 24 h): 1 µg/mL (≈ 2.61 µM)
- MIC (Acinetobacter baumannii [42]; isolate 905, 24 h): 0.5 µg/mL (≈ 1.3 µM)
- MIC (Acinetobacter baumannii [43]; isolate 919, 24 h): 1 µg/mL (≈ 2.61 µM)
- MIC (Acinetobacter baumannii [44]; isolate 893, 24 h): 2 µg/mL (≈ 5.22 µM)

Compound: COLISTIN
- MIC (Pseudomonas aeruginosa [1]): 1 µg/mL
- MIC (Acinetobacter baumannii [2]): 4 µg/mL
- MIC (Pseudomonas aeruginosa [4]): 1 µg/mL
- MIC (Acinetobacter baumannii [5]): 0.25 µg/mL
- MIC (Acinetobacter baumannii [6]): 2 µg/mL
- MIC (Pseudomonas aeruginosa [7]): 1 µg/mL
- MIC (Acinetobacter baumannii [8]): 1 µg/mL
- MIC (Acinetobacter baumannii [9]): 0.5 µg/mL
- MIC (Pseudomonas aeruginosa [10]): 2 µg/mL
- MIC (Pseudomonas aeruginosa [11]): 1 µg/mL
- MIC (Acinetobacter baumannii [12]): 0.25 µg/mL
- MIC (Acinetobacter baumannii [13]): 0.25 µg/mL
- MIC (Pseudomonas aeruginosa [14]): 1 µg/mL
- MIC (Acinetobacter baumannii [15]): 1 µg/mL
- MIC (Pseudomonas aeruginosa [16]): 1 µg/mL
- MIC (Acinetobacter baumannii [17]): 1 µg/mL
- MIC (Pseudomonas aeruginosa [18]): 1 µg/mL
- MIC (Pseudomonas aeruginosa [19]): 0.25 µg/mL
- MIC (Acinetobacter baumannii [20]): 16 µg/mL
- MIC (Pseudomonas aeruginosa [21]): 0.5 µg/mL
- MIC (Acinetobacter baumannii [22]): 16 µg/mL
- MIC (Acinetobacter baumannii [23]): 1 µg/mL
- MIC (Acinetobacter baumannii [24]): 2 µg/mL
- MIC (Pseudomonas aeruginosa [25]): 2 µg/mL
- MIC (Acinetobacter baumannii [26]): 2 µg/mL
- MIC (Pseudomonas aeruginosa [27]): 2 µg/mL
- MIC (Acinetobacter baumannii [28]): 2 µg/mL
- MIC (Acinetobacter baumannii [29]): 0.5 µg/mL
- MIC (Acinetobacter baumannii [30]): 32 µg/mL
- MIC (Pseudomonas aeruginosa [31]): 0.25 µg/mL
- MIC (Pseudomonas aeruginosa [32]): 1 µg/mL
- MIC (Acinetobacter baumannii [33]): 32 µg/mL
- MIC (Pseudomonas aeruginosa [34]): 1 µg/mL
- MIC (Acinetobacter baumannii [35]): 1 µg/mL
- MIC (Pseudomonas aeruginosa [36]): 0.5 µg/mL
- MIC (Acinetobacter baumannii [37]): 1 µg/mL
- MIC (Pseudomonas aeruginosa [38]): 2 µg/mL
- MIC (Acinetobacter baumannii [39]): 2 µg/mL
- MIC (Acinetobacter baumannii [40]): 2 µg/mL
- MIC (Acinetobacter baumannii [41]): 16 µg/mL
- MIC (Acinetobacter baumannii [42]): 4 µg/mL
- MIC (Acinetobacter baumannii [43]): 0.5 µg/mL
- MIC (Acinetobacter baumannii [44]): 0.5 µg/mL
